The values below come from patent publication US12098407B2, “Methods for decoupling yield and productivity of a non-catabolic compound produced by a host cell” (AMYRIS, INC., priority 2019, dated 2024).

A word on the Km: it is the concentration of substrate that gives half-maximal velocity.

Like-named read-outs stand apart in the source and are kept apart here.

For one test, the system named is biomass yield. Nature of the test: Concentration of weak organic acid required to reduce the biomass yield to 50% of the reference condition. The note with it: concentration required to reduce the biomass yield to 50% of the reference condition. Type of test: cell-based.
The subject of test [1] is farnesene-producing strain. Nature of the test: Farnesene-producing strain treated with different concentrations of benzoic acid. Type of test: cell-based. The note with it: FIG. 8. The procedure:
Benzoic acid can be used to deplete ATP in the cell by forcing the cells to use ATP to pump out excess protons that are moved into the cytoplasm by the benzoyl […]. […] The yield (qP/qS) was calculated from measured specific sugar uptake rate and specific farnesene production rate.
Single colonies were grown on CSM agar plates, then picked into sterile 96-well microtiter plates (1.1 mL working volume Axygen) containing 360 ul of defined liquid growth medium (LGM; as referenced in Example 1, Westfall et al, 2012) with 50 mM succinate (pH 5.0) and 2% sucrose+1% maltose+2 g/L lysine grown for 72 h at 28 C. […] Taking measurements of farnesene, biomass, and total residual sugar during log phase growth (at two times, T1 and T2) allows for the determination of specific productivity, growth rate, and specific sugar uptake rate. Farnesene is measured using full-well extraction with isopropanol, and quantified by UV absorbance at 220 nm with reference to a standard curve. Biomass was measured by assaying the fluorescent signal of intracellular tryptophan with an excitation wavelength of 290 nm and detection at 350 nm (UVOD). The relationship between this tryptophan signal and actual biomass is strain-dependent, and is determined empirically for each strain assayed. We do this by measuring both UVOD and biomass absorbance (OD) just prior to the start of production plates; this gives a per-well OD/UVOD conversion factor that is then used to convert UVOD signal at the end of production runs back to biomass. Another conversion we must make in determining biomass is from optical density (OD) to dry cell weight; this is also determined empirically. […] Growth rates were determined by applying a linear regression to LN (OD) vs time. Total reducing sugars was measured by using an enzymatic determination of sucrose, fructose and glucose with an output of NADH absorption read at 340 nm, as described in various commercial kits, as such those sold by Sigma Aldrich.

The target in another test is T1, HMGR from P. mevalonii (Pseudomonas mevalonii, UniProt P13702).
T1 sequence (P13702 1-428): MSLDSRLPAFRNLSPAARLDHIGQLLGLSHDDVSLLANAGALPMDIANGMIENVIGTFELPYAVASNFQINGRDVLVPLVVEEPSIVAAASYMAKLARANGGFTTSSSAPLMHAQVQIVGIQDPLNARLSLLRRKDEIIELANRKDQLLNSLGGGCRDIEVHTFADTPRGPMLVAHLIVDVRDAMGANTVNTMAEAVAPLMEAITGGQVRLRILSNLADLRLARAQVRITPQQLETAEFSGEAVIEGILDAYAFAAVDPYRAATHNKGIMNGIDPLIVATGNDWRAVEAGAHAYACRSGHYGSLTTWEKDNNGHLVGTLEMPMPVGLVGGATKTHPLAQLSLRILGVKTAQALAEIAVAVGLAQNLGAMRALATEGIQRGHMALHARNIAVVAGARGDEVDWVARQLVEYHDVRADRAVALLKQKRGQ
The note with it: class II HMGR, source P. mevalonii; read-out: Km^NADH; cited from earlier work.

Another test relates to HMGR from S. aureus. The note with it: class II HMGR, source S. aureus, cited from earlier work.
The target of another test is T2, HMGR from A. fulgidus (Archaeoglobus fulgidus, UniProt O28538).
T2 sequence (O28538 1-436): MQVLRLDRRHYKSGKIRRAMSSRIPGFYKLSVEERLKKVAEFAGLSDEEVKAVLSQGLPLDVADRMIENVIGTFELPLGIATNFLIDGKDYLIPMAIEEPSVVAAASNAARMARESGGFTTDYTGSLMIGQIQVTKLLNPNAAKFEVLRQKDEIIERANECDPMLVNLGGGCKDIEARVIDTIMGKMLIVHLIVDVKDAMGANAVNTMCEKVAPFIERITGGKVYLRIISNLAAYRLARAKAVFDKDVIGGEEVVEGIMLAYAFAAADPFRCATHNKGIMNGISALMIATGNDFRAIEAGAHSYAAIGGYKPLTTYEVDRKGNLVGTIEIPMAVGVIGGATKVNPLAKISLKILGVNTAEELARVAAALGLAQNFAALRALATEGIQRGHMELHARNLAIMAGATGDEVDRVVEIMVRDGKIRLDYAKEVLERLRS
The note with it: class II HMGR, source A. fulgidus, cited from earlier work.

The target of another test is HMGR from E. faecalis (Enterococcus faecalis, UniProt Q9FD70). The note with it: class II HMGR, source E. faecalis; read-out: Km^NADPH; cited from earlier work.
[2] abbreviates: increasing concentrations of benzoic acid.

Compound `CC(=O)O` [Acetic Acid] returned a YCR50 in the test on biomass yield of 105.0 mM.

Consider `O=C(O)c1ccccc1` [Benzoic Acid], for which, in test [1] (increased benzoic acid concentrations), the “calculated yield (qP/qS)” value is “increased”. For the same compound, in test [1] (setting [2]), the “specific farnesene productivity (qP)” value was “did not change and even increased a little at intermediate concentrations”; the “specific growth rate (mu)” value was “decreased linearly”. This compound also gave a YCR50 in the test on biomass yield of 2.0 mM.

On to `NC(=O)C1=CN([C@@H]2O[C@H](COP(=O)(O)OP(=O)(O)OC[C@H]3O[C@@H](n4cnc5c(N)ncnc54)[C@H](O)[C@@H]3O)[C@@H](O)[C@H]2O)C=CC1` [NADH], for which the Km is 80 µM at HMGR from P. mevalonii, 100 µM with HMGR from S. aureus (read-out: Km^NADH) and 160 µM at HMGR from A. fulgidus (read-out: Km^NADH).

As to `NC(=O)C1=CN([C@@H]2O[C@H](COP(=O)(O)OP(=O)(O)OC[C@H]3O[C@@H](n4cnc5c(N)ncnc54)[C@H](OP(=O)(O)O)[C@@H]3O)[C@@H](O)[C@H]2O)C=CC1` [NADPH], the Km was 30 µM at HMGR from E. faecalis, 70 µM in the test with HMGR from S. aureus (read-out: Km^NADPH) and 500 µM on HMGR from A. fulgidus (read-out: Km^NADPH).

Consider `CCC(=O)O` [Propionic Acid], for which the YCR50 with biomass yield is recorded as 20.0 mM.

For the compound `C/C=C/C=C/C(=O)O` [Sorbic Acid], the YCR50 in the test on biomass yield was found to be 1.3 mM.
